± gives the expanded uncertainty stated by the source.
How the values were obtained:
[1] = 101.33 kPa, Liquid, Vibrating tube method
[2] = molar heat capacity at constant pressure; settings: 101.33 kPa, Liquid, Small sample (50 mg) DSC

## Clc1ccc(Cl)c(Cl)c1 [1,2,4-trichlorobenzene]
[1]; 288.15 K
  mass density: 1460.65 ± 0.82 kg/m3
[1]; 298.15 K
  mass density: 1448.67 ± 0.81 kg/m3
[1]; 308.15 K
  mass density: 1436.73 ± 0.79 kg/m3
[1]; 318.15 K
  mass density: 1424.8 ± 0.8 kg/m3
[1]; 328.15 K
  mass density: 1412.89 ± 0.76 kg/m3
[1]; 338.15 K
  mass density: 1400.98 ± 0.75 kg/m3
[2]; 293.15 K
  molar heat capacity at constant pressure: 194.25 ± 3 J/K/mol
[2]; 295.15 K
  molar heat capacity at constant pressure: 194.57 ± 3 J/K/mol
[2]; 297.15 K
  molar heat capacity at constant pressure: 194.9 ± 3 J/K/mol
[2]; 299.15 K
  molar heat capacity at constant pressure: 195.23 ± 3 J/K/mol
[2]; 301.15 K
  molar heat capacity at constant pressure: 195.57 ± 3 J/K/mol
[2]; 303.15 K
  molar heat capacity at constant pressure: 195.92 ± 3 J/K/mol
[2]; 305.15 K
  molar heat capacity at constant pressure: 196.27 ± 3 J/K/mol
[2]; 307.15 K
  molar heat capacity at constant pressure: 196.63 ± 3 J/K/mol
[2]; 309.15 K
  molar heat capacity at constant pressure: 196.99 ± 3 J/K/mol
[2]; 311.15 K
  molar heat capacity at constant pressure: 197.35 ± 3.1 J/K/mol
[2]; 313.15 K
  molar heat capacity at constant pressure: 197.72 ± 3.1 J/K/mol
[2]; 315.15 K
  molar heat capacity at constant pressure: 198.09 ± 3.1 J/K/mol
[2]; 317.15 K
  molar heat capacity at constant pressure: 198.47 ± 3.1 J/K/mol
[2]; 319.15 K
  molar heat capacity at constant pressure: 198.85 ± 3.1 J/K/mol
[2]; 321.15 K
  molar heat capacity at constant pressure: 199.23 ± 3.1 J/K/mol
[2]; 323.15 K
  molar heat capacity at constant pressure: 199.61 ± 3.1 J/K/mol
[2]; 325.15 K
  molar heat capacity at constant pressure: 200 ± 3.1 J/K/mol
[2]; 327.15 K
  molar heat capacity at constant pressure: 200.38 ± 3.1 J/K/mol
[2]; 329.15 K
  molar heat capacity at constant pressure: 200.77 ± 3.1 J/K/mol
[2]; 331.15 K
  molar heat capacity at constant pressure: 201.16 ± 3.1 J/K/mol
[2]; 333.15 K
  molar heat capacity at constant pressure: 201.55 ± 3.1 J/K/mol
[2]; 335.15 K
  molar heat capacity at constant pressure: 201.93 ± 3.1 J/K/mol
[2]; 337.15 K
  molar heat capacity at constant pressure: 202.32 ± 3.1 J/K/mol
[2]; 339.15 K
  molar heat capacity at constant pressure: 202.71 ± 3.1 J/K/mol
[2]; 341.15 K
  molar heat capacity at constant pressure: 203.09 ± 3.1 J/K/mol
[2]; 343.15 K
  molar heat capacity at constant pressure: 203.47 ± 3.1 J/K/mol
[2]; 345.15 K
  molar heat capacity at constant pressure: 203.85 ± 3.2 J/K/mol
[2]; 347.15 K
  molar heat capacity at constant pressure: 204.23 ± 3.2 J/K/mol
[2]; 349.15 K
  molar heat capacity at constant pressure: 204.61 ± 3.2 J/K/mol
[2]; 351.15 K
  molar heat capacity at constant pressure: 204.98 ± 3.2 J/K/mol
[2]; 353.15 K
  molar heat capacity at constant pressure: 205.35 ± 3.2 J/K/mol

## Clc1ccccc1Cl [1,2-dichlorobenzene]
[1]; 288.15 K
  mass density: 1311.76 ± 0.64 kg/m3
[1]; 298.15 K
  mass density: 1300.61 ± 0.63 kg/m3
[1]; 308.15 K
  mass density: 1289.45 ± 0.62 kg/m3
[1]; 318.15 K
  mass density: 1278.29 ± 0.6 kg/m3
[1]; 328.15 K
  mass density: 1267.09 ± 0.59 kg/m3
[1]; 338.15 K
  mass density: 1255.87 ± 0.58 kg/m3
[2]; 283.15 K
  molar heat capacity at constant pressure: 167.68 ± 2.6 J/K/mol
[2]; 285.15 K
  molar heat capacity at constant pressure: 168.06 ± 2.6 J/K/mol
[2]; 287.15 K
  molar heat capacity at constant pressure: 168.44 ± 2.6 J/K/mol
[2]; 289.15 K
  molar heat capacity at constant pressure: 168.83 ± 2.6 J/K/mol
[2]; 291.15 K
  molar heat capacity at constant pressure: 169.23 ± 2.6 J/K/mol
[2]; 293.15 K
  molar heat capacity at constant pressure: 169.64 ± 2.6 J/K/mol
[2]; 295.15 K
  molar heat capacity at constant pressure: 170.05 ± 2.6 J/K/mol
[2]; 297.15 K
  molar heat capacity at constant pressure: 170.47 ± 2.6 J/K/mol
[2]; 299.15 K
  molar heat capacity at constant pressure: 170.89 ± 2.6 J/K/mol
[2]; 301.15 K
  molar heat capacity at constant pressure: 171.32 ± 2.6 J/K/mol
[2]; 303.15 K
  molar heat capacity at constant pressure: 171.76 ± 2.7 J/K/mol
[2]; 305.15 K
  molar heat capacity at constant pressure: 172.2 ± 2.7 J/K/mol
[2]; 307.15 K
  molar heat capacity at constant pressure: 172.64 ± 2.7 J/K/mol
[2]; 309.15 K
  molar heat capacity at constant pressure: 173.09 ± 2.7 J/K/mol
[2]; 311.15 K
  molar heat capacity at constant pressure: 173.54 ± 2.7 J/K/mol
[2]; 313.15 K
  molar heat capacity at constant pressure: 174 ± 2.7 J/K/mol
[2]; 315.15 K
  molar heat capacity at constant pressure: 174.46 ± 2.7 J/K/mol
[2]; 317.15 K
  molar heat capacity at constant pressure: 174.92 ± 2.7 J/K/mol
[2]; 319.15 K
  molar heat capacity at constant pressure: 175.38 ± 2.7 J/K/mol
[2]; 321.15 K
  molar heat capacity at constant pressure: 175.85 ± 2.7 J/K/mol
[2]; 323.15 K
  molar heat capacity at constant pressure: 176.32 ± 2.7 J/K/mol
[2]; 325.15 K
  molar heat capacity at constant pressure: 176.79 ± 2.7 J/K/mol
[2]; 327.15 K
  molar heat capacity at constant pressure: 177.26 ± 2.8 J/K/mol
[2]; 329.15 K
  molar heat capacity at constant pressure: 177.73 ± 2.8 J/K/mol
[2]; 331.15 K
  molar heat capacity at constant pressure: 178.2 ± 2.8 J/K/mol
[2]; 333.15 K
  molar heat capacity at constant pressure: 178.67 ± 2.8 J/K/mol
[2]; 335.15 K
  molar heat capacity at constant pressure: 179.14 ± 2.8 J/K/mol
[2]; 337.15 K
  molar heat capacity at constant pressure: 179.61 ± 2.8 J/K/mol
[2]; 339.15 K
  molar heat capacity at constant pressure: 180.07 ± 2.8 J/K/mol
[2]; 341.15 K
  molar heat capacity at constant pressure: 180.54 ± 2.8 J/K/mol
[2]; 343.15 K
  molar heat capacity at constant pressure: 181 ± 2.8 J/K/mol
[2]; 345.15 K
  molar heat capacity at constant pressure: 181.47 ± 2.8 J/K/mol
[2]; 347.15 K
  molar heat capacity at constant pressure: 181.92 ± 2.8 J/K/mol
[2]; 349.15 K
  molar heat capacity at constant pressure: 182.38 ± 2.8 J/K/mol
[2]; 351.15 K
  molar heat capacity at constant pressure: 182.83 ± 2.8 J/K/mol
[2]; 353.15 K
  molar heat capacity at constant pressure: 183.28 ± 2.8 J/K/mol

Reference: the NIST ThermoML archive (doi:10.1021/je600573w)
